Records with an inconclusive call do not appear. Calls of active or inactive are those of the source.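 The calls were made as follows: active = EC50 no higher than ten times the top concentration tested; inconclusive = flat fit with growth inhibition between 30% and 70%, or poor fit; inactive = EC50 above ten times the top concentration tested.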
Tested on: C. albicans CaCi-8 + fluconazole, Alamar Blue growth, 48 h
Assay: resistant C. albicans growth reduction under fluconazole – CaCi-8 strain, Alamar Blue fluorescence, SAR follow-up (AID 434935)

Compound | EC50
COc1ccc(-n2nc(C(=O)NCC(=O)N3CCN(c4ccccc4)CC3)c3ccccc3c2=O)c(OC)c1 | 1.17 µM
O=C(Nc1nnc(CCc2ccccc2)s1)c1ccco1 | 3.11 µM
COc1ccc(-c2nnc(NC(=O)c3ccc(F)cc3)o2)cc1 | 0.146 µM
Clc1ccc2c(c1)C(c1cccs1)=NNC(c1cccnc1)=N2 | < 0.1 µM
Cc1nc2ccccc2cc1OCc1ccc(F)cc1 | 7.27 µM
Cc1oc2c(F)c(F)c(F)c(F)c2c1S(=O)(=O)Nc1cccc(C(F)(F)F)c1 | 9.31 µM
O=C(Nc1nnc(SCc2ccc(Cl)cc2)s1)c1ccc2ccccc2n1 | 0.771 µM
O=C(Nc1sc2c(c1C(=O)c1ccc(Cl)cc1)CCCC2)c1cccnc1 | 0.938 µM
COc1cc2c(cc1NC(=O)c1ccco1)CCCC2 | < 0.1 µM
O=C(Oc1c(Cl)cc(Cl)c2cccnc12)c1cccs1 | 0.192 µM
CCCC(=O)NC(c1ccccc1)c1ccc2cccnc2c1O (centres undefined) | 1.11 µM
CCOC(=O)N1C(=O)C2(CCCCC2)N(c2ccc(C)cc2)C1=S | 1.36 µM
CC(C)COCc1ccc(O)c2ncccc12 | 7.46 µM
Cc1ccc(Nc2nc(N)c([N+](=O)[O-])c(N3CCC(C)CC3)n2)cc1C | 6.15 µM
CCCC(=O)NC(c1ccc(Cl)cc1)c1ccc2cccnc2c1O (centres undefined) | 0.607 µM
Cc1ccc(C(=O)c2coc3c2C(=O)C(=O)c2ccccc2-3)cc1 | 0.226 µM
Cc1ccc(C(=O)Nc2cccc(-c3cn4ccccc4n3)c2)cc1 | 2.77 µM
Nc1nccnc1C(=O)Nc1nnc(SCc2ccc(Cl)cc2)s1 | 1.43 µM
O=C(Nc1nc(-c2ccccn2)cs1)c1ccc(Br)s1 | 2.35 µM
Cc1ccc(/C=C/C(=O)c2ccccc(=O)c2O)cc1C | > 26 µM (inactive)
O=c1c2cc(Br)ccc2nc(-c2cccc(C(F)(F)F)c2)n1O | 3.1 µM
CC(C)N1CCc2c(sc(NC(=O)c3nc4ccccc4s3)c2C(N)=O)C1 | 0.6 µM
O=C(NNC1=C(C(=O)C(F)(F)F)CCC1)c1ccc(Cl)cc1 | 6.84 µM
O=C(Nc1nnc(-c2ccc3c(c2)CCCC3)o1)c1ccc(Cl)cc1Cl | 0.152 µM

— PubChem BioAssay AID434935 (Broad Institute, 2010)
